From patent US7138491B2, “Carboline-3-carboxylic acid modified related sequences of Ala-Arg-Pro-Ala-Lys, their synthesis and use as thromobolytic agent” (Guangzhou Bai Yun Shan Pharmaceutical Co., Ltd., priority 2003, dated 2006)
Marks after values point to notes of the source that are not given here. Ends that are not written are not given here.

How the values were obtained:
[1] = tested on: rabbit euglobulin fraction; test: In vitro euglobulin clot lysis time (ECLT); assay type: biochemical; settings: dosage differs per compound (1.3-6.7 μg; UK 5 IU); 96 well microtiter plate; n = 6; NS control 200.01 ± 15.26
Description: The rabbit euglobulin fraction was prepared according to the literature^[6]. Plasma diluted […] in distilled water was precipitated at pH 5.7 with acetic acid (0.25%). After 30 min at 4° C. the suspension was centrifuged at 2000 g for 15 min and the precipitate was resuspended to the initial plasma volume with 50 mM barbital buffer (pH 7.8, contained 1.66 mM of CaCl2, 0.68 mM of MgCl2 and 93.96 mM of NaCl). Euglobulin clot lysis time (ECLT) of the tested pseudopeptide was measured using a 96 well microtiter plate^[7] and the data are listed in Table 2.

fibrin plate = test: In vitro fibrinolytic lysis on fibrin plate (fibrinogen-agarose); assay type: biochemical, rabbit; settings: dosage per well differs per compound (0.8-2.2 μg; UK 5 IU); n = 6; NS control 21.01 ± 9.26
Description: The plates were prepared by mixing equal volumes of 0.3% rabbit fibrinogen and 0.95% agarose solutions, both dissolved in 50 mM of barbital buffer (pH 7.8, contained 1.66 mM of CaCl2, 0.68 mM of MgCl2 and 93.96 mM of NaCl)^[6]. The fibrinogen-agarose mixture was coagulated with […] thrombin (100 IU: ml) in the plastic dishes (its diameter is 90 mm and the depth of the fibrin plate is 1 mm). After 30 min at 4° C. an adequate number of wells, 5 mm in diameter, were perforated. To determine fibrinolytic activity […] aliquots of the tested pseudopeptides were added to each well, the plate was incubated, and areas of lysis were quantified as described for the regular fibrin plates.

thrombus = test: In vivo thrombolytic activity, thrombus on steel helix in extracorporeal circulation; settings: male Wistar rats; injected; dose differs per compound (3.1-8.2 mg/kg; UK 20000 IU); blood circulated 90 min; n = 10; NS control 12.31 ± 2.57
Description: Male Wistar rats weighing 200–300 g (purchased from Animal Center of Peking University) were anesthetized with pentobarbital sodium (80.0 mg/kg, ip). The right carotid artery and left vein jugular of the animals were separated. To the glass tube filled with artery blood (1.0 ml) from the right carotid artery of the animal a stainless steel filament helix (15 circles; L, 15 mm; D, 1.0 mm) was put immediately. After 15 minutes the helix with thrombus was carefully taken out and weighted exactly, which was put into the middle polyethylene tube. The polyethylene tube was full with heparin sodium (50 IU/ml of NS) and one end was inserted into the left jugular vein. Heparin sodium was injected via the other end of the polyethylene tube as the anticoagulant, following which the tested pseudopeptide was injected. The blood was circulated through the polyethylene tube for 90 min, after which the helix was taken out and weighted accurately.

Substance	Euglobulin clot lysis time, x ± SD [1]	Effect of the pseudopeptides on fibrin plate, areas of lysis, x ± SD (fibrin plate)	The reduction of thrombolytic mass, x ± SD (thrombus)
3S-1,2,3,4-tetrahydro-β-carboline-3-carboxyl-Ala-Arg-Pro-Ala-Lys-OH (ARPAK-OH; not fully specified (N-terminus); printed as 3S-1,2,3,4-tetrahydro-β-carboline-3-carboxyl-Ala-Arg-Pro-Ala-Lys-OH) [compound 11]	204.01 ± 32.61 min	24.10 ± 10.16 mm^2	14.01 ± 2.61 mg
3S-1,2,3,4-tetrahydro-β-carboline-3-carboxyl-Ala-Arg-Pro-Ala-OH (ARPA-OH; not fully specified (N-terminus); printed as 3S-1,2,3,4-tetrahydro-β-carboline-3-carboxyl-Ala-Arg-Pro-Ala-OH) [compound 17]	213.55 ± 30.47 min	23.44 ± 10.18 mm^2	13.55 ± 2.47 mg
3S-1,2,3,4-tetrahydro-β-carboline-3-carboxyl-Ala-Arg-Pro-OH [compound 18]	203.66 ± 30.44 min	23.88 ± 10.04 mm^2	13.66 ± 2.44 mg
3S-1,2,3,4-tetrahydro-β-carboline-3-carboxyl-Arg-Arg-Pro-Ala-Lys-OH (RRPAK-OH; not fully specified (N-terminus); printed as 3S-1,2,3,4-tetrahydro-β-carboline-3-carboxyl-Arg-Arg-Pro-Ala-Lys-OH) [compound 26]	214.80 ± 32.96 min	24.00 ± 12.01 mm^2	14.80 ± 2.96 mg
3S-1,2,3,4-tetrahydro-β-carboline-3-carboxyl-Arg-Pro-Ala-Lys-OH (RPAK-OH; not fully specified (N-terminus); printed as 3S-1,2,3,4-tetrahydro-β-carboline-3-carboxyl-Arg-Pro-Ala-Lys-OH) [compound 19]	213.56 ± 29.95 min	20.33 ± 9.28 mm^2	13.56 ± 2.45 mg
3S-1,2,3,4-tetrahydro-β-carboline-3-carboxyl-Asn-Arg-Pro-Ala-Lys-OH (NRPAK-OH; not fully specified (N-terminus); printed as 3S-1,2,3,4-tetrahydro-β-carboline-3-carboxyl-Asn-Arg-Pro-Ala-Lys-OH) [compound 15]	213.12 ± 29.47 min	23.21 ± 9.74 mm^2	13.12 ± 2.47 mg
3S-1,2,3,4-tetrahydro-β-carboline-3-carboxyl-Gln-Arg-Pro-Ala-Lys-OH (QRPAK-OH; not fully specified (N-terminus); printed as 3S-1,2,3,4-tetrahydro-β-carboline-3-carboxyl-Gln-Arg-Pro-Ala-Lys-OH) [compound 14]	212.98 ± 28.42 min	22.89 ± 10.02 mm^2	12.98 ± 2.42 mg
3S-1,2,3,4-tetrahydro-β-carboline-3-carboxyl-Gly-Arg-Pro-Ala-Lys-OH (GRPAK-OH; not fully specified (N-terminus); printed as 3S-1,2,3,4-tetrahydro-β-carboline-3-carboxyl-Gly-Arg-Pro-Ala-Lys-OH) [compound 12]	213.35 ± 29.47 min	23.53 ± 9.74 mm^2	13.35 ± 2.47 mg
3S-1,2,3,4-tetrahydro-β-carboline-3-carboxyl-Lys-Arg-Pro-Ala-Lys-OH (KRPAK-OH; not fully specified (N-terminus); printed as 3S-1,2,3,4-tetrahydro-β-carboline-3-carboxyl-Lys-Arg-Pro-Ala-Lys-OH) [compound 13]	214.11 ± 32.67 min	24.01 ± 10.05 mm^2	14.11 ± 2.67 mg
3S-1,2,3,4-tetrahydro-β-carboline-3-carboxyl-Pro-Ala-Lys-OH [compound 20]	209.31 ± 31.57 min	19.41 ± 11.71 mm^2	13.31 ± 0.0257 mg
3S-(2-Ala-Arg-Pro)-1,2,3,4-tetrahydro-β-carboline-3-carboxylic acid [compound 28]	213.23 ± 31.58 min	21.21 ± 11.11 mm^2	13.23 ± 2.58 mg
3S-(2-Ala-Arg-Pro-Ala)-1,2,3,4-tetrahydro-β-carboline-3-carboxylic acid (ARPA; not fully specified (C-terminus)) [compound 27]	203.89 ± 29.67 min	23.32 ± 9.99 mm^2	13.89 ± 2.67 mg
3S-(2-Ala-Arg-Pro-Ala-Lys)-1,2,3,4-tetrahydro-β-carboline-3-carboxylic acid (ARPAK; not fully specified (C-terminus)) [compound 21]	119.70 ± 23.71^a min	119.70 ± 10.71^a mm^2	19.7 ± 3.71^2) mg
3S-(2-Arg-Arg-Pro-Ala-Lys)-1,2,3,4-tetrahydro-β-carboline-3-carboxylic acid (RRPAK; not fully specified (C-terminus)) [compound 16]	204.11 ± 32.87 min	24.19 ± 10.08 mm^2	14.11 ± 2.87 mg
3S-(2-Arg-Pro-Ala-Lys)-1,2,3,4-tetrahydro-β-carboline-3-carboxylic acid (RPAK; not fully specified (C-terminus)) [compound 29]	104.40 ± 27.51^a min	126.55 ± 9.98^a mm^2	24.40 ± 2.51^a,d mg
3S-(2-Asn-Arg-Pro-Ala-Lys)-1,2,3,4-tetrahydro-β-carboline-3-carboxylic acid (NRPAK; not fully specified (C-terminus)) [compound 25]	217.27 ± 30.57 min	20.84 ± 10.77 mm^2	17.27 ± 3.57^2) mg
3S-(2-Gln-Arg-Pro-Ala-Lys)-1,2,3,4-tetrahydro-β-carboline-3-carboxylic acid (QRPAK; not fully specified (C-terminus)) [compound 24]	96.88 ± 29.21^1a min	133.89 ± 9.99^a mm^2	22.88 ± 9.21^1) mg
3S-(2-Gly-Arg-Pro-Ala-Lys)-1,2,3,4-tetrahydro-β-carboline-3-carboxylic acid (GRPAK; not fully specified (C-terminus)) [compound 22]	98.02 ± 25.21^a min	125.90 ± 11.15^a mm^2	24.02 ± 5.21^1) mg
3S-(2-Lys-Arg-Pro-Ala-Lys)-1,2,3,4-tetrahydro-β-carboline-3-carboxylic acid (KRPAK; not fully specified (C-terminus)) [compound 23]	213.98 ± 29.45 min	19.87 ± 9.58 mm^2	13.98 ± 2.45 mg
3S-(2-Pro-Ala-Lys)-1,2,3,4-tetrahydro-β-carboline-3-carboxylic acid [compound 30]	96.56 ± 30.42^a min	139.39 ± 9.52^a mm^2	26.56 ± 2.42^b mg
H-ARPAK-OH [compound 1, H-Ala-Arg-Pro-Ala-Lys-OH]	90.12 ± 17.64^a,b min	119.12 ± 12.44^a mm^2	18.84 ± 3.18^1)2) mg
H-Ala-Arg-Pro-Ala-OH (H-ARPA-OH) [compound 10]	214.01 ± 28.26 min	31.01 ± 9.26 mm^2	14.01 ± 2.26 mg
